How the values were obtained:
Assay type in all cases: biochemical
LCK = LCK (Homo sapiens, UniProt P06239); experiment: Inhibition of a panel of kinases, in vitro HotSpot kinase assay: LCK; details: D-compounds panel data; 1 μM ATP; read-out: IC50 LCK
EGFR = EGFR (Homo sapiens, UniProt P00533); experiment: Inhibition of a panel of kinases, in vitro HotSpot kinase assay: EGFR; details: D-compounds panel data; 1 μM ATP
Method: (§1) The degree of inhibition of a panel of kinases is determined using the in vitro HotSpot kinase assay (purified enzymes, ^33P-ATP, an appropriate substrate and 1 μM ATP).

BTK-WT = biological target: T1, BTK-WT (Homo sapiens, UniProt Q06187); experiment: Btk in vitro inhibitory activity (one of Method A TR-FRET, Method B electrophoretic mobility shift, Method C radiometric filter binding); details: D-compounds panel data; read-out: IC50 BTK-WT
T1 construct: purified from insect cells as a full-length construct containing an N-terminal 6X-His tag; His6 (N); made in house; host or cells: insect cells (baculovirus Sf21 in Method B)
T1 sequence (Q06187 whole entry): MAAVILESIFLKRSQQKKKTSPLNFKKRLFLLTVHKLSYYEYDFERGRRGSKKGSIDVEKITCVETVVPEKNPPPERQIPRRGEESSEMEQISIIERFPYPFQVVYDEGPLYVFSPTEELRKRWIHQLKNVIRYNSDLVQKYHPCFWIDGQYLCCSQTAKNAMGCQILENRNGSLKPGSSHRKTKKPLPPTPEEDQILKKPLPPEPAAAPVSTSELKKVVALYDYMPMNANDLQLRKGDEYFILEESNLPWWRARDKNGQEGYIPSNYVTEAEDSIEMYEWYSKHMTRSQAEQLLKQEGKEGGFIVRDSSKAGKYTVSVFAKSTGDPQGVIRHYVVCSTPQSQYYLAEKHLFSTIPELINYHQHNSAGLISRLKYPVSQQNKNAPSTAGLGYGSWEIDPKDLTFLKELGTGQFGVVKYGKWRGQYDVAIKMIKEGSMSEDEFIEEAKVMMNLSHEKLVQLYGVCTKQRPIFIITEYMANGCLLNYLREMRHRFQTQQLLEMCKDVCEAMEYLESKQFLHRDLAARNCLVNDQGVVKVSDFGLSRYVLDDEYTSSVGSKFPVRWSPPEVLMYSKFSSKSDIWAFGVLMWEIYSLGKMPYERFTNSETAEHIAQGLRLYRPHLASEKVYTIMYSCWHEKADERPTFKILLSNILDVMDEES

SRC = SRC (Homo sapiens, UniProt P12931); experiment: Inhibition of a panel of kinases, in vitro HotSpot kinase assay: SRC; details: D-compounds panel data; 1 μM ATP
Sequence of SRC (P12931 whole entry): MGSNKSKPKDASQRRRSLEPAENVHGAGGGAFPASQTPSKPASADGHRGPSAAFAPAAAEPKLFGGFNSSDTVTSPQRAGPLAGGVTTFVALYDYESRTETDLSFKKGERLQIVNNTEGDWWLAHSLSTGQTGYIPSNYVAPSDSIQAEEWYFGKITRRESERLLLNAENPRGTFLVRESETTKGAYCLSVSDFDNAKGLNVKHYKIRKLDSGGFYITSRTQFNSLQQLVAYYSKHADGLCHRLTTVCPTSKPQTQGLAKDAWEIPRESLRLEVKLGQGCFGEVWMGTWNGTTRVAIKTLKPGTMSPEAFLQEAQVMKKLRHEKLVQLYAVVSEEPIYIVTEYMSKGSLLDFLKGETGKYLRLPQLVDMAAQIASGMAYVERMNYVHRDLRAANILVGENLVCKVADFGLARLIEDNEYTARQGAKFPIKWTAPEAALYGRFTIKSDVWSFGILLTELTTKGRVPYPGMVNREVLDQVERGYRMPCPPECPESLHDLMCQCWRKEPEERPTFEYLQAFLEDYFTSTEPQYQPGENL
Method: as §1

JAK3 = biological target: T2, JAK3 (Homo sapiens, UniProt P52333); experiment: Inhibition of a panel of kinases, in vitro HotSpot kinase assay: JAK3; details: D-compounds panel data; 1 μM ATP; read-out: IC50 JAK3
T2 sequence (P52333 1-1124): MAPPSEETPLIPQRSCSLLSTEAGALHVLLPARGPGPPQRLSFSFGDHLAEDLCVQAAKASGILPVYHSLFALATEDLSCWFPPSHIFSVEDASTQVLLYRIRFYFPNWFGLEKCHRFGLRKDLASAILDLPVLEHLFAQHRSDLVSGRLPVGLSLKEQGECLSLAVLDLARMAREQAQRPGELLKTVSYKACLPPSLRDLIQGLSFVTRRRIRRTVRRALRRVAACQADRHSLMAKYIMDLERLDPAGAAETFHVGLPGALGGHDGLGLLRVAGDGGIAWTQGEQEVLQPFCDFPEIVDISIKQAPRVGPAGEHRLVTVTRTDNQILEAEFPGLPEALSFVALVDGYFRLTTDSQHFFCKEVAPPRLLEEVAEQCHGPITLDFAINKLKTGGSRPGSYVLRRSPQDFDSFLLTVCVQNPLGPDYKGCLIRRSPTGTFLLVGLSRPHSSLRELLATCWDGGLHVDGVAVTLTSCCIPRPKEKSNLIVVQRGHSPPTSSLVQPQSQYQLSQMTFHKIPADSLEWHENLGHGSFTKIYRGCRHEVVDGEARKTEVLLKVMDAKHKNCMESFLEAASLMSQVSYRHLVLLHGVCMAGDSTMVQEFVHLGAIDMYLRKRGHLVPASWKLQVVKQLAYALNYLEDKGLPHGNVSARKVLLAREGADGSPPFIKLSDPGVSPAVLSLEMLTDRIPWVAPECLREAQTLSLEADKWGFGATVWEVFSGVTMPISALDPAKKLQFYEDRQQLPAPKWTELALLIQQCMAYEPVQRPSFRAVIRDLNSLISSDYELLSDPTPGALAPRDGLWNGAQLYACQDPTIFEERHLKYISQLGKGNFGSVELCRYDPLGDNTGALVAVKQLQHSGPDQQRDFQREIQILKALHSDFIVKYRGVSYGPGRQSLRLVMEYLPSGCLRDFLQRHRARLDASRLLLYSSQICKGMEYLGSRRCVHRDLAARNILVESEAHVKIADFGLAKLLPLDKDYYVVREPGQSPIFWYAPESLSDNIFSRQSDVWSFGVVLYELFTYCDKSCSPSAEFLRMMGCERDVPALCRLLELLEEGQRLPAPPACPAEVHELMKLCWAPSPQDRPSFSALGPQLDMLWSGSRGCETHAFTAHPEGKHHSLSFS

Sequence of EGFR (P00533 25-1210): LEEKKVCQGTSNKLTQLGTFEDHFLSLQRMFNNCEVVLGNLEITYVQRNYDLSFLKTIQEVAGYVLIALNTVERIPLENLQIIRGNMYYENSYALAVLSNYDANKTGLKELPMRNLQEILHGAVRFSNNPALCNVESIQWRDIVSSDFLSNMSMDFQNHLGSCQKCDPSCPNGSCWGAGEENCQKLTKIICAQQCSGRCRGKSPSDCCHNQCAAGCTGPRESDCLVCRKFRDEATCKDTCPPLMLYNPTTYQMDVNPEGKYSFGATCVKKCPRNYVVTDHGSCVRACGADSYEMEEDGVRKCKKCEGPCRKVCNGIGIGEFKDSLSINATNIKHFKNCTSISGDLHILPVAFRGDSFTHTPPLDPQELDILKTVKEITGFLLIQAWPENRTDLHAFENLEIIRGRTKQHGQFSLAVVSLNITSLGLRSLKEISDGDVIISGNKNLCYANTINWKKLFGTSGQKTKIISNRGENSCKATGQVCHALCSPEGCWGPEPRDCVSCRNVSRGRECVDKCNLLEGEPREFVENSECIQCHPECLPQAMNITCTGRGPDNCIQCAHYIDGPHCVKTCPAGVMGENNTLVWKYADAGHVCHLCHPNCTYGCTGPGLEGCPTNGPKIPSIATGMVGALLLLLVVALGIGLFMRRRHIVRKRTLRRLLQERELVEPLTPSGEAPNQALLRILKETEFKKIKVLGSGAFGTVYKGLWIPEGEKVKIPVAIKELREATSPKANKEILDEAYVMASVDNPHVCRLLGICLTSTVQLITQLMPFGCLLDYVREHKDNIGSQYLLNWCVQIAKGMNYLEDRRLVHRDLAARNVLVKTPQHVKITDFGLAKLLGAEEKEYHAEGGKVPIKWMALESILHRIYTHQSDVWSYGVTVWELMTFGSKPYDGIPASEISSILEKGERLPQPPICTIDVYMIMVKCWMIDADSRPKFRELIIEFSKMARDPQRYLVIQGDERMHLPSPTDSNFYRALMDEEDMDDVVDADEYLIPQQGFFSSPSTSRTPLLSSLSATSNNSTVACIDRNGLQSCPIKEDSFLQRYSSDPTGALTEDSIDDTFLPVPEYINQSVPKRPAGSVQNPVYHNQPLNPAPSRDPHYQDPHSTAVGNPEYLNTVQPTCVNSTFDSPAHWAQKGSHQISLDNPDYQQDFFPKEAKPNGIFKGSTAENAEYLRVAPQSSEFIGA
Sequence of LCK (P06239 whole entry): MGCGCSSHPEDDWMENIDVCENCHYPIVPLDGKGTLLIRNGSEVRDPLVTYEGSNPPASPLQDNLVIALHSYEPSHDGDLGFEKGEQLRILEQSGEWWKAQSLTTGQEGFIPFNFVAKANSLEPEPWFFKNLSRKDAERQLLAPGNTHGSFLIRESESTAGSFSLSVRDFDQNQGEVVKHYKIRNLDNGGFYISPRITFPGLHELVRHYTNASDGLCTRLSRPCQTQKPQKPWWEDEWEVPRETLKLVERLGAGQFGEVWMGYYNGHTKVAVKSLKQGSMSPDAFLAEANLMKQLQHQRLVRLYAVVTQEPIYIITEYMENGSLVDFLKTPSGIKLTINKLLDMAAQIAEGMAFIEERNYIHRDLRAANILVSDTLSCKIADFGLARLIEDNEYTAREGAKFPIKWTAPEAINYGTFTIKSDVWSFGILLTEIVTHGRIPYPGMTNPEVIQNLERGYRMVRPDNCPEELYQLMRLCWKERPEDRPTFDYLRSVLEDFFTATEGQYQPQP

Structure (SMILES) | IC50 (LCK) | IC50 (EGFR) | IC50 (BTK-WT) | IC50 (SRC) | IC50 (JAK3)
C[C@@H]1C[C@@H](NC(=O)c2ccc(C3CC3)cc2)CN(c2cnc(C(N)=O)c(Nc3cnn(C)c3)n2)C1 [Example D-31, 5-[(3R,5R)-3-(4-cyclopropylbenzamido)-5-methylpiperidin-1-yl]-3-[(1-methyl-1H-pyrazol-4-yl)amino]pyrazine-2-carboxamide] | 1 to 10 µM | > 10 µM | 0.01 to 0.1 µM | 0.1 to 1 µM | 1 to 10 µM
C[C@@H]1[C@H](NC(=O)c2ccc(C(C)(C)O)nc2)CCCN1c1cnc(C(N)=O)c(Nc2cnn(C)c2)n1 [Example D-40, 5-[(2R,3R)-3-[6-(2-hydroxypropan-2-yl)pyridine-3-amido]-2-methylpiperidin-1-yl]-3-[(1-methyl-1H-pyrazol-4-yl)amino]pyrazine-2-carboxamide] | 0.01 to 0.1 µM | 0.1 to 1 µM | ≤ 0.01 µM | 0.01 to 0.1 µM | 0.1 to 1 µM
Cc1cc(Nc2nc(N3C[C@@H](NC(=O)c4ccc(C5CC5)cc4F)CC[C@@H]3C)cnc2C(N)=O)sn1 [Example D-78, 5-[(2S,5S)-5-(4-cyclopropyl-2-fluorobenzamido)-2-methylpiperidin-1-yl]-3-[(3-methyl-1,2-thiazol-5-yl)amino]pyrazine-2-carboxamide] | 0.1 to 1 µM | 0.1 to 1 µM | 0.1 to 1 µM | 0.1 to 1 µM | 1 to 10 µM
Cc1cc(Nc2nc(N3C[C@@H](NC(=O)c4ccc(C5CC5)cc4F)CC[C@H]3C)cnc2C(N)=O)sn1 [Example D-80, 5-[(2R,5S)-5-(4-cyclopropyl-2-fluorobenzamido)-2-methylpiperidin-1-yl]-3-[(3-methyl-1,2-thiazol-5-yl)amino]pyrazine-2-carboxamide] | 0.1 to 1 µM | 0.1 to 1 µM | 0.01 to 0.1 µM | 0.1 to 1 µM | 1 to 10 µM
C[C@@H]1[C@H](NC(=O)N(C)C)CCCN1c1cnc(C(N)=O)c(Nc2ccc(N3CCN(C)CC3)cc2F)n1 [Example D-52, 5-[(2R,3R)-3-[(dimethylcarbamoyl)amino]-2-methylpiperidin-1-yl]-3-{[2-fluoro-4-(4-methylpiperazin-1-yl)phenyl]amino}pyrazine-2-carboxamide] | 1 to 10 µM | 1 to 10 µM | 0.01 to 0.1 µM | 0.1 to 1 µM | > 10 µM
Cn1cc(Nc2nc(N3CCC[C@@H]4[C@H]3CCN4C(=O)c3ccc(C4CC4)cc3)cnc2C(N)=O)cn1 [Example D-44, 5-[(3aR,7aR)-1-(4-cyclopropylbenzoyl)-octahydro-1H-pyrrolo[3,2-b]pyridin-4-yl]-3-[(1-methyl-1H-pyrazol-4-yl)amino]pyrazine-2-carboxamide] | 0.1 to 1 µM | 0.1 to 1 µM | 0.01 to 0.1 µM | 1 to 10 µM | 1 to 10 µM
Cc1cc(Nc2nc(N3C[C@@H](NC(=O)N(C)C)CC[C@@H]3C)cnc2C(N)=O)sn1 [Example D-76, 5-[(2S,5S)-5-[(dimethylcarbamoyl)amino]-2-methylpiperidin-1-yl]-3-[(3-methyl-1,2-thiazol-5-yl)amino]pyrazine-2-carboxamide] | > 10 µM | 1 to 10 µM | 0.1 to 1 µM | 1 to 10 µM | 1 to 10 µM
CC1COc2cc(C(=O)N[C@@H]3CCCN(c4cnc(C(N)=O)c(Nc5cnn(C)c5)n4)[C@@H]3C)ccc2C1 (stereo partly drawn) [Example D-56, 3-[(1-methyl-1H-pyrazol-4-yl)amino]-5-[(2R,3R)-2-methyl-3-(3-methyl-3,4-dihydro-2H-1-benzopyran-7-amido)piperidin-1-yl]pyrazine-2-carboxamide] | 0.01 to 0.1 µM | 0.1 to 1 µM | ≤ 0.01 µM | 0.01 to 0.1 µM | > 10 µM
Cn1cc(Nc2nc(N3CCC[C@@H](NC(=O)c4ccc(C(C)(C)O)cc4)C3)nnc2C(N)=O)cn1 [Example D-39, 3-[(3R)-3-[4-(2-hydroxypropan-2-yl)benzamido]piperidin-1-yl]-5-[(1-methyl-1H-pyrazol-4-yl)amino]-1,2,4-triazine-6-carboxamide] | 0.1 to 1 µM | > 10 µM | ≤ 0.01 µM | 0.1 to 1 µM | 0.1 to 1 µM
C[C@@H]1[C@H](NC(=O)c2ccc(N(C)C)cn2)CCCN1c1cnc(C(N)=O)c(Nc2cnn(C)c2)n1 [Example D-84, 5-[(2R,3R)-3-[5-(dimethylamino)pyridine-2-amido]-2-methylpiperidin-1-yl]-3-[(1-methyl-1H-pyrazol-4-yl)amino]pyrazine-2-carboxamide] | 0.1 to 1 µM | 1 to 10 µM | ≤ 0.01 µM | 0.01 to 0.1 µM | > 10 µM
Cc1ncc(Nc2nc(N3CCC[C@@H](NC(=O)c4ccc(C5CC5)cc4F)C3)cnc2C(N)=O)s1 [Example D-4, 5-[(3R)-3-(4-cyclopropyl-2-fluorobenzamido)piperidin-1-yl]-3-[(2-methyl-1,3-thiazol-5-yl)amino]pyrazine-2-carboxamide] | > 10 µM | > 10 µM | 0.01 to 0.1 µM | > 10 µM | 1 to 10 µM
Cn1cc(Nc2nc(N3CCC[C@@H]4[C@H]3CCN4C(=O)c3ccccc3)cnc2C(N)=O)cn1 (racemic) [Example D-54, (racemic)-cis-5-{1-benzoyl-octahydro-1H-pyrrolo[3,2-b]pyridin-4-yl}-3-[(1-methyl-1H-pyrazol-4-yl)amino]pyrazine-2-carboxamide] | 0.1 to 1 µM | > 10 µM | 0.01 to 0.1 µM | 0.1 to 1 µM | 1 to 10 µM
CN1CCN(C(=O)c2ccc(Nc3nc(N[C@H]4CC[C@@H](NC(=O)c5ccc(C6CC6)cc5F)CC4)cnc3C(N)=O)cc2)CC1 [Example D-71, 3-{[4-(4-methylpiperazine-1-carbonyl)phenyl]amino}-5-{[(1 s,4s)-4-(4-cyclopropyl-2-fluorobenzamido)cyclohexyl]amino}pyrazine-2-carboxamide] | 0.01 to 0.1 µM | 0.1 to 1 µM | 0.01 to 0.1 µM | 0.1 to 1 µM | 0.01 to 0.1 µM
C[C@@H]1[C@H](N2CCN(C)C2=O)CCCN1c1cnc(C(N)=O)c(Nc2cnn(C)c2)n1 [Example D-93, 3-[(1-methyl-1H-pyrazol-4-yl)amino]-5-[(2R,3R)-2-methyl-3-(3-methyl-2-oxoimidazolidin-1-yl)piperidin-1-yl]pyrazine-2-carboxamide] | 0.1 to 1 µM | 1 to 10 µM | 0.01 to 0.1 µM | 0.01 to 0.1 µM | 0.1 to 1 µM
C[C@@H]1[C@H](NC(=O)c2cnn(C(C)(C)C)c2)CCCN1c1cnc(C(N)=O)c(Nc2cnn(C)c2)n1 [Example D-57, 5-[(2R,3R)-3-(1-tert-butyl-1H-pyrazole-4-amido)-2-methylpiperidin-1-yl]-3-[(1-methyl-1H-pyrazol-4-yl)amino]pyrazine-2-carboxamide] | 0.1 to 1 µM | 1 to 10 µM | ≤ 0.01 µM | 0.01 to 0.1 µM | 1 to 10 µM
CC(C)n1ccc(C(=O)N[C@@H]2CCCN(c3cnc(C(N)=O)c(Nc4cnn(C)c4)n3)[C@@H]2C)cc1=O [Example D-35, 3-[(1-methyl-1H-pyrazol-4-yl)amino]-5-[(2R,3R)-2-methyl-3-[2-oxo-1-(propan-2-yl)-1,2-dihydropyridine-4-amido]piperidin-1-yl]pyrazine-2-carboxamide] | 0.1 to 1 µM | 1 to 10 µM | ≤ 0.01 µM | 0.01 to 0.1 µM | 0.1 to 1 µM

From patent US20210070748A1, “INHIBITORS OF BRUTONS TYROSINE KINASE” (Pharmacyclics LLC, priority 2015, published 2021)
